Experimental data from US20250179050A1, “POLYMORPH AS THYROID HORMONE RECEPTOR AGONISTS AND USE THEREOF” (XIZANG HAISCO PHARMACEUTICAL CO., LTD., priority 2022, published 2025).

Assays:
Assay type in all cases: physicochemical
[1] = Dynamic moisture sorption and desorption analysis (DVS)
Description: Dynamic Moisture Sorption and Desorption Analysis The dynamic moisture sorption and desorption analysis was determined using DVS Intrinsic (SMS, UK). The test was carried out in a gradient mode with a humidity change of 50%-95%-0%-50%, and a humidity change of 10% per gradient in the range of 0% to 90%, and the gradient endpoint was determined in dm/dt, with the gradient endpoint being dm/dt less than 0.002% and held for 10 minutes. After the test was complete, XRPD analysis of the sample was carried out to confirm whether the solid morphology has changed.

[2] = Stability test 1: high temperature, high humidity, light, accelerated conditions, XRPD; details: 15 days
Description: Around 20 mg of samples were weighed into weighing bottles, stored under high temperature (60° C.), high humidity (25° C., 92.5% RH), light (25° C., 4500 Lux), accelerated (40° C., 75% RH) conditions, respectively, and samples were collected at days 7 and 15 for XRPD characterization.

[3] = Stability test 2: 40° C.±2° C., 75% RH±5% RH, HPLC related substances and crystal form; details: for Crystal form / Related Substances (%) Maximum individual impurity / Related Substances (%) Total impurity: 40° C.±2° C.
Description: The Form C sample was measured using the HPLC method at 40° C.±2° C., 75% RH±5% RH at months 0, 1, 2, 3, and 6 using a double layer pharmaceutical low density polyethylene bag as an inner wrap and a polyester/aluminum/polyethylene pharmaceutical composite bag as an outer wrap.

[4] = Stability test 3: 5° C.±3° C., HPLC related substances; details: for Crystal form / Related Substances (%) Maximum individual impurity / Related Substances (%) Total impurity: 5° C.±3° C.
Description: The Form C sample was measured using the HPLC method at 5° C.±3° C. at months 0, 3, 6, 9, and 12 using a double layer pharmaceutical low density polyethylene bag as an inner wrap and a polyester/aluminum/polyethylene pharmaceutical composite bag as an outer wrap.

[5] = Stability test 4: 25° C.±2° C., 60% RH±5% RH, HPLC related substances; details: for Crystal form / Related Substances (%) Maximum individual impurity / Related Substances (%) Total impurity: 25° C.±2° C.
Description: The Form C sample was measured using the HPLC method at 25° C.±2° C., 60% RH±5% RH at months 0, 3, 6, 9, and 12 using a double layer pharmaceutical low density polyethylene bag as an inner wrap and a polyester/aluminum/polyethylene pharmaceutical composite bag as an outer wrap.

[6] = Stability test 5: 30° C.±2° C., 65% RH±5% RH, HPLC related substances; details: for Crystal form / Related Substances (%) Maximum individual impurity / Related Substances (%) Total impurity: 30° C.±2° C.
Description: The Form C sample was measured using the HPLC method at 30° C.±2° C., 65% RH±5% RH at months 0, 3, 6, 9, and 12 using a double layer pharmaceutical low density polyethylene bag as an inner wrap and a polyester/aluminum/polyethylene pharmaceutical composite bag as an outer wrap.

[7] = Thermal crystal transformation test (hot stage, XRPD)
Description: The present invention further provides a method for preparing the polymorph of any one of Form A to Form Z, including: • (1) suspension method: adding a crude free base of the compound of formula I (which can be prepared according to the methods described in WO 2019240938 A1) to a selected single or binary solvent until a suspension is formed and stirring same under suspension at room temperature to 50° C. for a period of time (e.g., 1 h to 3 days, or 2 h to 24 h, or 2 h to 12 h, or 3 h to 5 h), and then centrifuging and separating the suspension, followed by drying, to obtain the product; or • (2) Anti-solvent crystallization method: adding a crude free base of the compound of formula I to an appropriate amount of a good solvent until completely dissolved, taking an amount of the solution and dropwise adding same to a poor solvent or dropwise adding a poor solvent to the solution, and stirring same to precipitate a solid, followed by separation and drying to obtain the product; or • (3) cooling method: adding a crude free base of the compound of formula I to an appropriate amount of a solvent at 50-80° C. until the solid is just completely dissolved, and transferring the solution to an environment at room temperature for cooling, followed by leaving to stand or crystallization under stirring, separation and drying to obtain the product; or • (4) vapor diffusion method: dropwise adding an appropriate amount of a good solvent to an amount of a crude free base of the compound of formula I at room temperature to completely dissolve the sample or formulating same as a saturated solution of a good solvent; and separately taking an amount of the solution, and leaving the clear solution to stand in a poor solvent atmosphere at room temperature until a solid precipitates out, followed by separation, to obtain the product; or • (5) thermal crystal transformation method: placing an amount of the sample on a glass plate on a hot stage, heating same to the target temperature at a rate (e.g., 5-20° C./min, or 10-15° C./min), and maintaining the temperature for a period of time (e.g., 0.5-5 min, or 1-3 min, or 1-2 min), followed by naturally cooling down to room temperature to obtain a solid.
The different crystal forms, as raw materials, were heated to the target temperature on a hot table and held for 1 min, and cooled to room temperature to obtain solids for the XRPD test.

[8] = Crystal form on leaving to stand at room temperature; details: room temperature for 3 days
Description: To 100 mg of the compound of formula I prepared in Example 1, 1 ml of methanol was added and heated to reflux. 1 ml of acetonitrile was added dropwise, slowly cooled to room temperature, stirred for 3-5 h and centrifuged, and the resulting solid was dried under vacuum overnight at room temperature to give Form U. Form U of the compound of formula I was characterized by XRPD, DSC and TGA, as shown in FIGS. 41-42, respectively. […] Based on the integration results, the roughly estimated mass percentage is about 5.2%. In summary, Form U is a solvate of acetonitrile in a ratio of 1:1 of the compound to acetonitrile.

For `[2H]C([2H])([2H])[C@@H]1CCc2c(Oc3c(Cl)cc(-n4nc(C#N)c(=O)[nH]c4=O)cc3Cl)n[nH]c(=O)c21` [Form C, (R)-2-(3,5-dichloro-4-((7-(methyl-d3)-1-oxo-2,5,6,7-tetrahydro-1H-cyclopenta [d]pyridazin-4-yl)oxy)phenyl)-3,5-dioxo-2,3,4,5-tetrahydro-1,2,4-triazine-6-carbonitrile], the hygroscopicity ([1]; DVS 50%-95%-0%-50% humidity) was “almost no hygroscopicity”, the DVS weight loss ([1]; at 0% humidity) was 0.13% and the DVS weight gain ([1]; at 95% humidity) was 0.20%. For the same compound, the “crystal form after the DVS test (XRPD)” value ([1]; samples after the DVS test) was “no change in crystal form”, the “crystal form stability (XRPD)” value ([2]; accelerated (40° C., 75% RH)) was “no change in crystal form” and the “crystal form stability (XRPD)” value ([2]; high humidity (25° C., 92.5% RH)) was “no change in crystal form”. The “crystal form stability (XRPD)” value ([2]; high temperature (60° C.)) was “no change in crystal form”, the “crystal form stability (XRPD)” value ([2]; light (25° C., 4500 Lux)) was “no change in crystal form” and the Crystal form ([3]; 0 months) was “Form C”. For the same compound, the “Related Substances (%) Maximum individual impurity” value ([3]; 0 months) was 0.05%, the “Related Substances (%) Total impurity” value ([3]; 0 months) was 0.26% and the Crystal form ([3]; 1 month) was “Form C”. For the same compound, the “Related Substances (%) Maximum individual impurity” value ([3]; 1 month) was 0.05%, the “Related Substances (%) Total impurity” value ([3]; 1 month) was 0.25% and the Crystal form ([3]; 2 months) was “Form C”. For the same compound, the “Related Substances (%) Maximum individual impurity” value ([3]; 2 months) was 0.05%, the “Related Substances (%) Total impurity” value ([3]; 2 months) was 0.26% and the Crystal form ([3]; 3 months) was “Form C”. For the same compound, the “Related Substances (%) Maximum individual impurity” value ([3]; 3 months) was 0.05%, the “Related Substances (%) Total impurity” value ([3]; 3 months) was 0.26% and the Crystal form ([3]; 6 months) was “Form C”. The “Related Substances (%) Maximum individual impurity” value ([3]; 6 months) was 0.05%, the “Related Substances (%) Total impurity” value ([3]; 6 months) was 0.28% and the “stability (related substances)” value ([3]; within 6 months at 40° C.±2° C.) was “good stability”. The Crystal form ([4]; 0 months) was “Form C”, the “Related Substances (%) Maximum individual impurity” value ([4]; 0 months) was 0.05% and the “Related Substances (%) Total impurity” value ([4]; 0 months) was 0.26%. The Crystal form ([4]; 3 months) was “Form C”, the “Related Substances (%) Maximum individual impurity” value ([4]; 3 months) was 0.05% and the “Related Substances (%) Total impurity” value ([4]; 3 months) was 0.27%. The Crystal form ([4]; 6 months) was “Form C”, the “Related Substances (%) Maximum individual impurity” value ([4]; 6 months) was 0.05% and the “Related Substances (%) Total impurity” value ([4]; 6 months) was 0.26%. The Crystal form ([4]; 9 months) was “Form C”, the “Related Substances (%) Maximum individual impurity” value ([4]; 9 months) was 0.05% and the “Related Substances (%) Total impurity” value ([4]; 9 months) was 0.26%. The Crystal form ([4]; 12 months) was “Form C”, the “Related Substances (%) Maximum individual impurity” value ([4]; 12 months) was 0.05% and the “Related Substances (%) Total impurity” value ([4]; 12 months) was 0.26%. For the same compound, the “stability (related substances)” value ([4]; within 12 months at 5° C.±3° C.) was “good stability”, the Crystal form ([5]; 0 months) was “Form C” and the “Related Substances (%) Maximum individual impurity” value ([5]; 0 months) was 0.05%. The “Related Substances (%) Total impurity” value ([5]; 0 months) was 0.26%, the Crystal form ([5]; 3 months) was “Form C” and the “Related Substances (%) Maximum individual impurity” value ([5]; 3 months) was 0.05%. For the same compound, the “Related Substances (%) Total impurity” value ([5]; 3 months) was 0.27%, the Crystal form ([5]; 6 months) was “Form C” and the “Related Substances (%) Maximum individual impurity” value ([5]; 6 months) was 0.05%. For the same compound, the “Related Substances (%) Total impurity” value ([5]; 6 months) was 0.26%, the Crystal form ([5]; 9 months) was “Form C” and the “Related Substances (%) Maximum individual impurity” value ([5]; 9 months) was 0.05%. The “Related Substances (%) Total impurity” value ([5]; 9 months) was 0.26%, the Crystal form ([5]; 12 months) was “Form C” and the “Related Substances (%) Maximum individual impurity” value ([5]; 12 months) was 0.05%. For the same compound, the “Related Substances (%) Total impurity” value ([5]; 12 months) was 0.27%, the “stability (related substances)” value ([5]; within 12 months at 25° C.±2° C.) was “good stability” and the Crystal form ([6]; 0 months) was “Form C”. The “Related Substances (%) Maximum individual impurity” value ([6]; 0 months) was 0.05%, the “Related Substances (%) Total impurity” value ([6]; 0 months) was 0.26% and the Crystal form ([6]; 3 months) was “Form C”. The “Related Substances (%) Maximum individual impurity” value ([6]; 3 months) was 0.05%, the “Related Substances (%) Total impurity” value ([6]; 3 months) was 0.26% and the Crystal form ([6]; 6 months) was “Form C”. For the same compound, the “Related Substances (%) Maximum individual impurity” value ([6]; 6 months) was 0.05%, the “Related Substances (%) Total impurity” value ([6]; 6 months) was 0.27% and the Crystal form ([6]; 9 months) was “Form C”. For the same compound, the “Related Substances (%) Maximum individual impurity” value ([6]; 9 months) was 0.05%, the “Related Substances (%) Total impurity” value ([6]; 9 months) was 0.25% and the Crystal form ([6]; 12 months) was “Form C”. The “Related Substances (%) Maximum individual impurity” value ([6]; 12 months) was 0.05%, the “Related Substances (%) Total impurity” value ([6]; 12 months) was 0.26% and the “stability (related substances)” value ([6]; within 12 months at 30° C.±2° C.) was “good stability”.
In the case of `[2H]C([2H])([2H])[C@@H]1CCc2c(Oc3c(Cl)cc(-n4nc(C#N)c(=O)[nH]c4=O)cc3Cl)n[nH]c(=O)c21` [Form U, (R)-2-(3,5-dichloro-4-((7-(methyl-d3)-1-oxo-2,5,6,7-tetrahydro-1H-cyclopenta [d]pyridazin-4-yl)oxy)phenyl)-3,5-dioxo-2,3,4,5-tetrahydro-1,2,4-triazine-6-carbonitrile], the “crystal form after thermal crystal transformation” value ([7]; heated to 250° C.) is reported as “Form C”, the “Results (crystal form after thermal crystal transformation, XRPD)” value ([7]; target temperature 250° C., heating rate 10° C./min, holding time 1 min) is reported as “Form C” and the “crystal form after leaving to stand” value [8] is reported as “Form L”.
